These results are taken from patent US8546095B2, “Methods for determination of calcineurin activity and uses in predicting therapeutic outcomes” (Emory University, priority 2007, dated 2013).

“Also recorded” adds a separate entry of the source.

Data set [1] has as its system calcineurin. Kind of data set: Fluorimetric calcineurin assay in cultured primary renal fibroblasts.
Experimental: FIG. 16A: Cultured renal fibroblasts were treated with a variety of stimuli including arginine vasopressin (AVP), dexamethasone, and phorbol myristate acetate (PMA) to induce calcineurin activity. In addition, some cells were pre-treated with calcineurin inhibitors prior to the addition of PMA. Cells were lysed according to previously established methods and then calcineurin activity was determined. Data shown is the mean+/−SEM of triplicate samples compared to a standard curve. […] Tissues were lysed according to previously established methods and calcineurin activity determined. Data shown are the mean+/−SEM of triplicate samples compared to a standard curve.
When the absorbance values obtained were compared to a standard curve of recombinant calcineurin run simultaneously, a determination of calcineurin activity in each condition can be made.
Data set [2] has as its target T1, recombinant calcineurin (Homo sapiens, UniProt Q08209).
T1 construct: purchased Calbiochem (San Diego, Calif.)
The data set can be described thus: Fluorimetric calcineurin assay with recombinant calcineurin and standard controls. As to conditions: 0.2 ng recombinant calcineurin, ANOVA. In kind it is biochemical. Here is the method: Reactions using 0.2 ng of recombinant calcineurin along with standard controls for calcineurin activity, including heat inactivation of the recombinant enzyme, addition of an autoinhibitory peptide, absence of calcium, and chelation of calcium with EGTA were investigated.
Recombinant calcineurin was from Calbiochem (San Diego, Calif.), and all other chemicals were obtained from Sigma (St Louis, Mo.). The RII peptide, Fluoresceinyl-[…]frican-AmericanE, and its phosphorylated analog (Fluoresceinyl-[…]pSVAfrican-AmericanE where pS=L-phosphoserine) were synthesized by Fmoc-based solid-phase peptide synthesis using model Liberty microwave-assisted peptide synthesizer (CEM Corporation, Matthews, N.C.). The peptides were purified to apparent homogeneity by reversed-phase HPLC and their masses were confirmed by mass spectrometry. Peptides were diluted in: Tris 50 mM, 100 mM NaCl, 0.5 mM DTT, and 0.1 mg/ml bovine serum albumen to a final concentration of 30 ng/ml. Reaction buffer consisted of 0.1 mg/ml BSA, 35 mM Tris pH 7.5, 25 mM NaCl, 2.0 mM MgCl2, 270 μM DTT, 500 μM EDTA, 419 nM Okadaic acid (in 0.63% ethanol), 25 mM CaCl2. Titanium oxide plates were pre-incubated with a binding buffer consisting of 0.1% acetic acid in 10% acetonitrile. […]

For data set [3], the system named is calcineurin. The data set can be described thus: Fluorimetric calcineurin assay in isolated PBMCs (PMA or anti-CD3 stimulation, in vitro calcineurin inhibitors). The format is cell-based, human. As to the method: It was also shown that the fold change in calcineurin activity in response to anti-CD3 was sensitive to tacrolimus inhibition. Thus, PBMCs from control subjects were incubated with increasing amounts of tacrolimus before the anti-CD3 stimulation and the calcineurin activity was then measured.
It was further determined whether in vitro addition of calcineurin inhibitors could further inhibit calcineurin activity in samples from transplant subjects.
(i) Collection of samples. Heparinized blood can be obtained by routine phlebotomy and PBMC isolated and frozen in 10% DMSO. Samples will be thawed and viability confirmed prior to treatment.
(ii) Treatment of T cells. Three parameters of calcineurin activity: 1) base-line levels of the enzyme; 2) the increase in calcineurin in response to general stimuli; and, 3) the response of calcineurin to T cell receptor specific activation.
PBMCs were thawed, viable cells counted and then separated into aliquots of about 2×10^5 cells. Based on preliminary experiments, samples were treated with anti-CD3 (Muromonab, 10 μg/ml) antibodies for 15 mins at 37° C. Based on preliminary dose and time curves, PMA was added to aliquots for 5 mins. Control samples were included with either no treatment or adjuvant-only (DMSO). These manipulations yielded base-line activity, maximum non-specific activation, and TCR-stimulated activity.
(iii) 20 μl diluted peptide substrate, 20 μl of reaction buffer, and 20 μl of sample were loaded into individual wells of a 96-well plate and incubated at 30° C. for 10 minutes. During the reaction time, a 96-well plate with titanium oxide-coated wells was prepared by adding 50 μl binding buffer (0.1% acetic acid in 10% acetonitrile) per well. After the incubation period, reactions were transferred into prepared titanium oxide-coated wells following by gentle shaking for 5 minutes. The contents of each well were then removed to a white 96-well plate preloaded with 20 μl of 3N ammonium hydroxide.

Data set [4] concerns calcineurin. Kind of data set: Radiometric calcineurin assay, basal activity in isolated CD3+/4+ T cells treated in vitro. The format is cell-based, human. The following applies: for inhibition of basal calcineurin activity: 5 ng/ml. As to the method: (§1) 40 mLs of heparinized blood was collected from the study participants. T cells were then isolated using the Prepacyte SC reagent (BioE WBP2000 St. Paul Minn.) antibody negative selection and Vitalyse (BioE KI-135) treated to eliminate remaining erythrocytes. Cells were pelleted by centrifugation, washed with 1× phosphate-buffered saline, and resuspended in RPMI 1640 containing penicillin/streptomycin antibiotics, 10% fetal calf serum, 2 mM 1-glutamine, 25 mM glucose, and 1 mM sodium pyruvate.
(§2) Calcineurin activity was determined using an in vitro assay as described in Fruman et al, Methods in Enzymology 9, 146-154 (1996) and Lea et al., J Am Soc Nephrol 13, 1750-1756 (2002), both of which are incorporated herein by reference in their entireties. Following treatment, isolated lymphocytes were pelleted and then re-suspended in calcineurin buffer ([…], 250 μM KCl, 10 mg/ml BSA, 5 mg/ml DTT, pH 7.5). Cells were then lysed by three cycles of freeze-thawing in liquid nitrogen and a 37° C. water bath. The concentration of harvested proteins was determined by the BCA method (Pierce Biotechnology, Rockford, Ill.) and then […] of sample was incubated with equal volumes of calcineurin reaction buffer (100 nM calmodulin, 0.1 mM CaCl, 25 μgs calyculin, 3 μg cold RII peptide) and 30 γ^32P[ATP]-labeled RII peptide substrate.
(§3) The reaction was allowed to proceed for 10 minutes, and then 10 mgs/ml charcoal/TCA solution was added to each sample to stop the reaction. Finally, samples were passed through millipore filtration buckets, scintillation fluid added, and the amount of released phosphates read in an automated counter. Reactions were performed in triplicate and final data for subjects were calculated as the mean of triplicate samples minus control reactions to normalize for background.
To ensure that calcineurin activity was measured in a uniform population of cells, experiments were performed in isolated lymphocytes that were enriched for CD3^+/4^+ T cells using erythrocyte lysis, gradient centrifugation, and Prepacyte SC reagent (BioE, St. Paul Minn.).
First, T cells were isolated from control subjects and were then treated in vitro with vehicle (DMSO) or 5 ng/ml tacrolimus for 15 minutes.

In data set [5] the test system is calcineurin. Kind of data set: Radiometric calcineurin assay in isolated T cells after T cell receptor stimulation with anti-CD3/anti-CD28 antibodies, with or without inhibitor pre-treatment. As to conditions: for effect of pre-treatment on anti-CD3/anti-CD28-stimulated calcineurin activity (words): control T cells, tacrolimus/FK506 5 ng/ml, cyclosporine A printed as 500 ng/ml, 5 μg/ml or 5 mg/ml. The format is cell-based, human. Here is the method:
as §1, §2, §3
T cell isolates were stimulated for 15 minutes with multiple agents including calcium ionophore, phorbal myristate […] (PMA), and anti-CD3/CD28 antibodies. […] Next, T cells were pre-treated for 30 minutes with cyclosporine (5 mg/ml) or FK506 (5 ng/ml) and then CD3/CD28-mediated stimulation was measured.

The conditions of data set [6]: human, in vivo. As to the method:
Stimulation of calcineurin activity was also determined for caucasian and African-American transplant patients. […] Trough blood levels of FK506 for both caucasian and African-American transplant patients were obtained at the time of T cell isolation.

In the case of `NC(=O)CC[C@@H]1NC(=O)[C@H](Cc2ccccc2)NC(=O)[C@H](Cc2ccc(O)cc2)NC(=O)[C@@H](N)CSSC[C@@H](C(=O)N2CCC[C@H]2C(=O)N[C@@H](CCCN=C(N)N)C(=O)NCC(N)=O)NC(=O)[C@H](CC(N)=O)NC1=O` [Arginine vasopressin (AVP), arginine vasopressin], the “stimulation of calcineurin activity” value in data set [1] is “significantly stimulated calcineurin activity”.
As to `O=C(O)CN(CCOCCOCCN(CC(=O)O)CC(=O)O)CC(=O)O` [EGTA], the “effect on dephosphorylation by recombinant calcineurin” value in data set [2] was “significantly reduced”.
`CCCCCCCCCCCCCC(=O)O[C@@H]1[C@@H](C)[C@@]2(O)[C@@H](C=C(CO)C[C@]3(O)C(=O)C(C)=C[C@@H]23)[C@@H]2C(C)(C)[C@]12OC(C)=O` [PMA, phorbol myristate acetate]: the “stimulation of calcineurin activity” value in data set [3] (control PBMCs) is “stimulated calcineurin activity in control cells”; in data set [3] (transplant recipient-derived PBMCs), “not in the transplant recipient-derived PBMC samples”; in data set [1], “significantly stimulated calcineurin activity”.
As for `C=CC[C@@H]1/C=C(\C)C[C@H](C)C[C@H](OC)[C@H]2O[C@@](O)(C(=O)C(=O)N3CCCC[C@H]3C(=O)O[C@H](/C(C)=C/[C@@H]3CC[C@@H](O)[C@H](OC)C3)[C@H](C)[C@@H](O)CC1=O)[C@H](C)C[C@@H]2OC` [tacrolimus], the “effect on basal calcineurin activity” value in data set [4] (control T cells (N=81), 5.0 ng/ml in vitro, p<0.001) is “significantly decreased calcineurin activity”. In addition, the “calcineurin activity after in vitro tacrolimus” value in data set [4] (control subjects' T cells, 5 ng/ml for 15 minutes, vehicle (DMSO) 913±6) was determined as 662±6 fmole/μg protein/min. Besides, the “inhibition of basal calcineurin activity” value in data set [4] (female control subjects) amounted to 30±4%; in data set [4] (male control subjects) it was 27±4%. Further, the “effect of pre-treatment on anti-CD3/CD28-stimulated calcineurin activity” value in data set [5] (African-American control subjects, listed as FK506) is listed as “neither cyclosporine A nor FK506 significantly reduced calcineurin activity; also recorded: neither cyclosporine nor FK506 pre-treatment inhibited calcineurin activity”; in data set [5] (caucasian control subjects), “inhibited”. The “effect of pre-treatment on anti-CD3/anti-CD28-stimulated calcineurin activity (words)” value in data set [5] is “blocked the CD3/CD28 stimulation; also recorded: blocked the rise in calcineurin activity; also recorded: effective at blocking the induction”; in data set [5] (listed as FK506), “significantly reduced CD3/CD28-mediated calcineurin activity; also recorded: blocked stimulation”. Moreover, the “effect on fold change in calcineurin activity with anti-CD3 stimulation” value in data set [3] (control PBMCs incubated with increasing amounts before anti-CD3 stimulation) is “inhibited by tacrolimus in a dose-dependent fashion; also recorded: inhibited in control PBMCs in a dose-responsive manner”. In data set [6], this compound showed a mean plasma level of 11.4 ng/mL. For the same compound, the “effect of pre-treatment on PMA-stimulated calcineurin activity” value in data set [1] was “blocked stimulation by PMA”.
As for “anti-CD3: anti-CD3 (Muromonab, 10 μg/ml) antibodies for TCR-specific activation without co-stimulation”, the “stimulation of calcineurin activity” value in data set [3] (control PBMCs) is “observed only in control PBMCs”.
